Measurements as given in PubChem BioAssay (NCI).
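Dose response: 5 concentrations. Exposure: 48 h. Format: 96-well plates. Endpoint: linear interpolation; highest concentration if not reached. TGI denotes the concentration required for complete inhibition of growth.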

Experiments:
Assay in all cases: NCI anticancer screen, dose series, 48 h
[1] = test system: HCT-116 colon
[2] = test system: LOX IMVI melanoma
[3] = test system: CAKI-1 renal
[4] = test system: HCT-15 colon
[5] = test system: SF-295 CNS
[6] = test system: NCI/ADR-RES ovarian
[7] = test system: OVCAR-5 ovarian
[8] = test system: SF-539 CNS
[9] = test system: SNB-19 CNS
[10] = test system: HL-60(TB) leukemia
[11] = test system: CCRF-CEM leukemia
[12] = test system: 786-0 renal
[13] = test system: HS 578T breast
[14] = test system: OVCAR-4 ovarian
[15] = test system: SW-620 colon
[16] = test system: RXF 393 renal
[17] = test system: NCI-H23 lung
[18] = test system: MDA-MB-435
[19] = test system: HT29 colon
[20] = test system: OVCAR-8 ovarian
[21] = test system: NCI-H522 lung
[22] = test system: SF-268 CNS
[23] = test system: M14 melanoma
[24] = test system: NCI-H460 lung
[25] = test system: ACHN renal
[26] = test system: MDA-MB-231 breast
[27] = test system: K-562 leukemia
[28] = test system: MOLT-4 leukemia
[29] = test system: UO-31 renal
[30] = test system: SR leukemia
[31] = test system: OVCAR-3 ovarian
[32] = test system: TK-10 renal
[33] = test system: KM12 colon
[34] = test system: NCI-H226 lung
[35] = test system: A549 NSCLC
[36] = test system: MCF7 breast
[37] = test system: SK-MEL-5 melanoma
[38] = test system: DU-145 prostate
[39] = test system: T-47D breast
[40] = test system: RPMI-8226 leukemia
[41] = test system: SK-OV-3 ovarian
[42] = test system: SNB-75 CNS
[43] = test system: MALME-3M melanoma
[44] = test system: SK-MEL-2 melanoma
[45] = test system: U251 CNS
[46] = test system: HOP-92 NSCLC
[47] = test system: UACC-257 melanoma
[48] = test system: BT-549 breast
[49] = test system: IGROV1 ovarian
[50] = test system: HCC-2998 colon
[51] = test system: SK-MEL-28 melanoma
[52] = test system: COLO 205 colon
[53] = test system: EKVX NSCLC
[54] = test system: HOP-62 NSCLC
[55] = test system: MDA-N
[56] = test system: UACC-62 melanoma
[57] = test system: SN12C renal
[58] = test system: PC-3 prostate

Measured: TGI

Cc1noc(NS(=O)(=O)c2ccc(NC(=O)c3ccc4[nH]c5ccccc5c(=O)c4c3)cc2)c1C
63.2 µM: [39]
62.2 µM: [8]
81.5 µM: [27]
98 µM: [16]
56.5 µM: [2]
76.2 µM: [21]
65.2 µM: [50]
66.5 µM: [36]
77.8 µM: [31]
67.3 µM: [11]
67.6 µM: [28]
66.8 µM: [10]
85.2 µM: [30]
> 100 µM: all other assays above
